The source of these data is US8680159B2, “Bradykinin 1 receptor modulating compounds” (Gruenenthal GmbH, priority 2010, dated 2014).

The structures appear in SMILES notation.

As usually defined, the inhibition is the change of the read-out against control, counted positive when it falls.

In the first assay the target is T1, B1R receptor of the rat (CHO K1 cells stably transfected with the B1R gene of the rat) (Rattus norvegicus, UniProt P97583).
T1 construct: expressed in transfected cells; host or cells: CHO K1 cells (Chinese hamster ovary), stably transfected
T1 sequence (P97583 1-337): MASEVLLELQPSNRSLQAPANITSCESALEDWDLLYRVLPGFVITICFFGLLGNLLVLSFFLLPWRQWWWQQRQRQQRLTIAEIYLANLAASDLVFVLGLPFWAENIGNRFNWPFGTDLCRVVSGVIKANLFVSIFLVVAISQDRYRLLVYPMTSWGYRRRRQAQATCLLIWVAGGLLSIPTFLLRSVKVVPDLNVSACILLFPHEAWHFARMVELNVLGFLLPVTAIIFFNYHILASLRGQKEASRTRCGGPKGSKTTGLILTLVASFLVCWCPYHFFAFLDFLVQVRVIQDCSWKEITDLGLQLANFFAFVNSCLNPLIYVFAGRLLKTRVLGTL
The experiment in a line: Functional study on the bradykinin receptor 1 (B1R), Ca2+ fluorescence (Fluo-4) FLIPR/Novostar assay, rB1R cells. It counts as cell-based. The following applies: 10 μM. As to the method: The agonistic or antagonistic action of substances can be quantified on the bradykinin receptor 1 (B1R) of the species human and rat using ectopically expressing cell lines (CHO K1 cells) and with the aid of a Ca^2+-sensitive dye (Fluo-4) using a fluorescent imaging plate reader (FLIPR). The indication in % activation is based on the Ca^2+ signal after addition of Lys-Des-Arg^9-bradykinin (0.5 nM) or Des-Arg^9-bradykinin (100 nM). Antagonists lead to suppression of the Ca^2+ influx after the addition of the agonist. % Inhibition compared with the maximum achievable inhibition is indicated.
The agonistic or antagonistic action of substances can be determined on the bradykinin receptor 1 (B1R) of the species human and rat using the following assay. According to this assay, the increase in intracellular Ca^2+ following administration of a B1R agonist is quantified with the aid of a Ca^2+-sensitive dye (Fluo-4 type, Molecular Probes Europe BV, Leiden, Netherlands) using a Fluorescent Imaging Plate Reader (FLIPR, Molecular Devices, Sunnyvale, USA) and/or using a Novostar (BMG Labtech GmbH, Offenburg, Germany).
Chinese hamster ovary cells (CHO K1 cells) which have been stably transfected with the human B1R gene (hB1R cells) or with the B1R gene of the rat (rB1R cells) are used. For functional studies, the cells are plated out on black 96-well plates having a clear base (BD Biosciences, Heidelberg, Germany or Greiner, Frickenhausen, Germany) in a density of 20,000-35,000 cells/well. The cells are left overnight at 37° C. and with 5% CO2 in culture medium (hB1R cells: Nutrient Mixture Ham's F12, Gibco Invitrogen GmbH, Karlsruhe, Germany or DMEM, Sigma-Aldrich, Taufkirchen, Germany; rB1R cells: D-MEM/F12, Gibco Invitrogen GmbH, Karlsruhe, Germany), with 10 vol. % FBS (fetal bovine serum, Gibco Invitrogen GmbH, Karlsruhe, Germany or PAN Biotech GmbH, Aidenbach, Germany). On the following day, the cells are loaded for 60 minutes at 37° C. with 2.13 μM Fluo-4 (Molecular Probes Europe BV, Leiden, Netherlands) in HBSS buffer (Hank's buffered saline solution, Gibco Invitrogen GmbH, Karlsruhe, Germany) […] (Sigma-Aldrich, Taufkirchen, Germany) and 10 mM HEPES (Sigma-Aldrich, Taufkirchen, Germany). The plates are then washed twice with HBSS buffer, and HBSS buffer additionally containing 0.1% BSA (bovine serum albumin; Sigma-Aldrich, Taufkirchen, Germany), 5.6 mM glucose and 0.05% gelatin (Merck KGaA, Darmstadt, Germany) is added to the plates. After incubation for a further 20 minutes at room temperature, the plates are inserted into the FLIPR or Novostar for Ca^2+ measurement. Alternatively, washing is carried out with buffer A (15 mM HEPES, 80 mM NaCl, 5 mM KCl, 1.2 mM CaCl2, 0.7 mM MgSO4, 2 g/l glucose, 2.5 mM probenecid) followed by loading with buffer A with added 2.5 μM Fluo-4 and 0.025% Pluronic F127 (Sigma-Aldrich, Taufkirchen, Germany). The cells are then washed twice with buffer A and incubated for 30 minutes at room temperature with buffer A additionally containing 0.05% BSA and 0.05% gelatin and are then inserted into the FLIPR or Novostar for Ca^2+ measurement. The Ca^2+-dependent fluorescence is measured before and after the addition of substances (λex=488 nm, λem=540 nm). Quantification is carried out by measuring the highest fluorescence intensity (FC, fluorescence counts) over time.
The FLIPR protocol consists of 2 substance additions, which are pipetted in the FLIPR. In the case of measurements using the Novostar, only the second substance addition is pipetted in the device. Both devices measure the fluorescence intensity over time. Test substances (10 μM) are first pipetted onto the cells and the intracellular Ca^2+ increase is compared with the control (hB1R: Lys-Des-Arg^9-bradykinin>=50 nM; rB1R: Des-Arg^9-bradykinin>=1 μM). This gives the % activation, based on the Ca^2+ signal after addition of Lys-Des-Arg^9-bradykinin (>=50 nM) or Des-Arg^9-bradykinin (>=1 μM). […]
On to `CN(C(=O)NC1CC(C)(C)c2ccc(C(=O)N(C)C3CCN(c4ccncc4)CC3)cc21)c1ccccc1Cl` (stereo not drawn) [CC_H-245, 3-[[(2-Chlorophenyl)-methyl-carbamoyl]amino]-N,1,1-trimethyl-N-(1-pyridin-4-yl-piperidin-4-yl)-2,3-dihydro-indene-5-carboxylic acid amide], for which the “% Inhibition (r-B1R) at 10 μM” value worked out at 107%.

Still in this assay, the particulars now being: CHO-K1, 10 μM, library compounds CC_H, read-out: % Inhibition (r-B1R) at 10 μM.
Take `CN(C)c1nccc(N2CCC(N(C)C(=O)c3ccc4c(c3)C(NC(=O)CCC3CCCC3)CC4)CC2)n1` (stereo not drawn) [CC_H-629, 3-(3-Cyclopentyl-propanoylamino)-N-[1-(2-dimethylamino-pyrimidin-4-yl)-piperidin-4-yl]-N-methyl-2,3-dihydro-1H-indene-5-carboxylic acid amide]: the inhibition at 10 µM was 101%.

The same assay, now with this note: CHO-K1, 10 μM, read-out: % Inhibition (r-B1R) at 10 μM.
As for `Cc1cc(N2CCC(N(C)C(=O)c3ccc4c(c3)C(N(C)C(=O)N(C)c3ccc(Cl)cc3Cl)CC4)CC2)cc(C)n1` (stereo not drawn) [CC_H-350, 3[[(2,4-Dichlorophenyl)-methyl-carbamoyl]-methyl-amino]-N-[1-(2,6-dimethyl-pyridin-4-yl)-piperidin-4-yl]-N-methyl-2,3-dihydro-1H-indene-5-carboxylic acid amide], the inhibition at 10 µM is 108%.
The same measure, in the same setting: in the case of `Cc1cc(N2CCC(N(C)C(=O)c3ccc4c(c3)C(NC(=O)c3cccc(C(F)(F)F)c3Cl)CC4)CC2)cc(C)n1` (stereo not drawn) [CC_H-303, 3-[[2-Chloro-3-(trifluoromethyl)-benzoyl]amino]-N-[1-(2,6-dimethyl-pyridin-4-yl)-piperidin-4-yl]-N-methyl-2,3-dihydro-1H-indene-5-carboxylic acid amide] it was 112%; in that of `CC(=O)NC1CCCc2ccc(C(=O)N(C)C3CCN(c4ccncc4)CC3)cc21` (stereo not drawn) [CC_H-253, 8-Acetylamino-N-methyl-N-(1-pyridin-4-yl-piperidin-4-yl)-5,6,7,8-tetrahydro-naphthalene-2-carboxylic acid amide], 110%.
Regarding `Cc1ccc(F)c(C(=O)NC2CCOc3ccc(C(=O)N(C)C4CCN(c5ccncc5)CC4)cc32)c1Cl` (stereo not drawn) [CC_H-273, 4-[(2-Chloro-6-fluoro-3-methyl-benzoyl)amino]-N-methyl-N-(1-pyridin-4-yl-piperidin-4-yl)-3,4-dihydro-2H-chromene-6-carboxylic acid amide], the inhibition at 10 µM stood at 112%.
`CN(C(=O)c1ccc2c(c1)C(NC(=O)Nc1ccccc1Cl)CCO2)C1CCN(c2ccncc2)CC1` (stereo not drawn) [CC_H-280, 4-[[(2-Chlorophenyl)-carbamoyl]amino]-N-methyl-N-(1-pyridin-4-yl-piperidin-4-yl)-3,4-dihydro-2H-chromene-6-carboxylic acid amide]: the inhibition at 10 µM came out at 91%.
In the case of `Cc1cc(N2CCC(N(C)C(=O)c3ccc4c(c3)C(N(C)C(=O)CC(C)(C)C)CC4)CC2)cc(C)n1` (stereo not drawn) [CC_H-332, 3-(3,3-Dimethyl-butanoyl-methyl-amino)-N-[1-(2,6-dimethyl-pyridin-4-yl)-piperidin-4-yl]-N-methyl-2,3-dihydro-1H-indene-5-carboxylic acid amide], the inhibition at 10 µM worked out at 111%.
On to `CN(C(=O)c1ccc2c(c1)C(NC(=O)c1cc(F)ccc1Cl)CC2(C)C)C1CCN(c2ccncc2)CC1` (stereo not drawn) [CC_H-222, 3-[(2-Chloro-5-fluoro-benzoyl)amino]-N,1,1-trimethyl-N-(1-pyridin-4-yl-piperidin-4-yl)-2,3-dihydro-indene-5-carboxylic acid amide], for which the inhibition at 10 µM was found to be 110%.
For the compound `CN(C(=O)c1ccc2c(c1)C(N(C)C(=O)Nc1ccccc1Cl)CC2)C1CCN(c2ccncc2)CC1` (stereo not drawn) [CC_H-217, 3-[[(2-Chlorophenyl)-carbamoyl]-methyl-amino]-N-methyl-N-(1-pyridin-4-yl-piperidin-4-yl)-2,3-dihydro-1H-indene-5-carboxylic acid amide], the inhibition at 10 µM stood at 94%.
As to `CCCC(=O)NC1CCc2ccc(C(=O)N(C)C3CCN(c4ccc5cnccc5c4)CC3)cc21` (stereo not drawn) [CC_H-380, 3-(Butanoylamino)-N-(1-isoquinolin-6-yl-piperidin-4-yl)-N-methyl-2,3-dihydro-1H-indene-5-carboxylic acid amide], the inhibition at 10 µM came to 103%.
The same measure, in the same setting: in the case of `COCC(=O)NC1CCOc2ccc(C(=O)N(C)C3CCN(c4ccncc4)CC3)cc21` (stereo not drawn) [CC_H-276, 4-[(2-Methoxy-acetyl]amino]-N-methyl-N-(1-pyridin-4-yl-piperidin-4-yl)-3,4-dihydro-2H-chromene-6-carboxylic acid amide] it was 51%.
On to `CN(C(=O)c1ccc2c(c1)C(N(C)C(=O)c1cc(Cl)ccc1Cl)CC2)C1CCN(c2ccncc2)CC1` (stereo not drawn) [CC_H-210, 3-[(2,5-Dichloro-benzoyl)-methyl-amino]-N-methyl-N-(1-pyridin-4-yl-piperidin-4-yl)-2,3-dihydro-1H-indene-5-carboxylic acid amide], for which the inhibition at 10 µM was determined as 112%.
As for `Cc1cc(N2CCC(N(C)C(=O)c3ccc4c(c3)C(N(C)S(=O)(=O)c3c(C)cccc3Cl)CC4)CC2)cc(C)n1` (stereo not drawn) [CC_H-335, 3-[[(2-Chloro-6-methyl-phenyl)sulfonyl]-methyl-amino]-N-[1-(2,6-dimethyl-pyridin-4-yl)-piperidin-4-yl]-N-methyl-2,3-dihydro-1H-indene-5-carboxylic acid amide], the inhibition at 10 µM worked out at 110%.
Same read-out and setting: in the case of `CN(C(=O)c1ccc2c(c1)C(NC(=O)Nc1cc(Cl)ccc1Cl)CCC2)C1CCN(c2ccncc2)CC1` (stereo not drawn) [CC_H-259, 8-[[(2,5-Dichloro-phenyl)-carbamoyl]amino]-N-methyl-N-(1-pyridin-4-yl-piperidin-4-yl)-5,6,7,8-tetrahydro-naphthalene-2-carboxylic acid amide] it was 100%; in that of `Cc1cc(N2CCC(N(C)C(=O)c3ccc4c(c3)C(N(C)C(=O)Nc3cccc(Cl)c3)CC4)CC2)cc(C)n1` (stereo not drawn) [CC_H-337, 3-[[(3-Chlorophenyl)-carbamoyl]-methyl-amino]-N-[1-(2,6-dimethyl-pyridin-4-yl)-piperidin-4-yl]-N-methyl-2,3-dihydro-1H-indene-5-carboxylic acid amide], 110%; in that of `Cc1cccc(Cl)c1S(=O)(=O)NC1CC(C)(C)c2ccc(C(=O)N(C)C3CCN(c4ccncc4)CC3)cc21` (stereo not drawn) [CC_H-230, 3-[[(2-Chloro-6-methyl-phenyl)sulfonyl]amino]-N,1,1-trimethyl-N-(1-pyridin-4-yl-piperidin-4-yl)-2,3-dihydro-indene-5-carboxylic acid amide], 110%.
Same read-out and setting: in the case of `CCCC(=O)NC1CCc2ccc(C(=O)N(C)C3CCN(c4cc(C)nc(C)c4)CC3)cc21` (stereo not drawn) [CC_H-319, 3-(Butanoylamino)-N-[1-(2,6-dimethyl-pyridin-4-yl)-piperidin-4-yl]-N-methyl-2,3-dihydro-1H-indene-5-carboxylic acid amide] it was 106%.
